Experimental findings from patent publication US7192981B2, “3,4-dihydroxyhydrocinnamic acid derivative” (Bionutrigen Co., Ltd., priority 2005, dated 2007) are described below.

The test system of assay [1] is Akt/PKB. The experiment in a line: Akt/PKB phosphorylation in adipocytes, western blot. In kind it is cell-based, rat. The note with it: 500 μM, 4 h. As to the method:
Proteins were separated by 10% SDS-PAGE and transferred to a polyvinyl difluoride membrane (Amersham Pharmacia Biotech). After transfer, the membranes were blocked with 5% skim milk in Tris-buffered saline with Tween 20 (TBST; 0.05% Tween 20, 200 mM Tris-HCl, 500 mM NaCl, pH 7.5) for 1 h at room temperature. The membranes were incubated with anti-IR-β, anti-IRS-1, anti-phosphotyrosine, or anti-p85 PI3-kinase (Upstate Biotech); anti-Akt/PKB or anti-phospho-Akt/PKB (Cell Signalling Technology, Beverly, Mass.); anti-GLUT4 (Santa Cruz Biotechnology Inc., Santa Cruz, Calif.); or anti-β actin (Sigma) antibody in 5% bovine serum albumin in TBST for 1 h at room temperature or overnight at 4° C. After washing, the membranes were incubated with secondary antibodies labeled with horseradish peroxidase (HRP) in 5% skim milk in TBST for 1 h. The membranes were washed and the immunoreactive proteins were detected with an enhanced chemoluminescence western blot detection kit (Amersham Pharmacia Biotech).
A general note: In western blotting, separated proteins are transferred to a membrane and probed.

The test system of assay [2] is diabetic ob/ob mice. The assay is described as follows: Blood glucose and glucose tolerance test in diabetic ob/ob mice. In kind it is in vivo, mouse. The text has this: Male C57BL/6 and C57BL/6 ob/ob mice were purchased from The Jackson Laboratory (Bar Harbor, Me.), and Sprague-Dawley (SD) rats were purchased from Charles River Laboratories (Wilmington, Mass.). The animals were maintained and bred under specific pathogen-free conditions and provided with sterile food and water ad libitum at the Animal Resources Centre, Faculty of Medicine, University of Calgary. The use and care of the animals used in this study were approved by the Animal Care Committee, Faculty of Medicine, University of Calgary.
DHH105 was dissolved in DMSO and emulsified in olive oil (1:50 v/v). […] Blood glucose levels were measured with a glucometer (One Touch Ultra, Lifescan, Milpitas, Calif.) every morning between 9:00–10:00 a.m. just before injection of DHH105.
To determine whether treatment with DHH105 can decrease the blood glucose level in STZ-induced diabetic C57BL/6 mice (blood glucose levels>300 mg/dl), mice were treated with DHH105 (150 mg/kd) daily for 2 weeks. […] Blood glucose levels were measured at 0, 15, 30, 60, and 120 min after glucose injection.
The blood glucose lowering effect was further determined in ob/ob mice, a model of type 2 diabetes. […]

Assay [3] has as its system IRS-1. The experiment in a line: Phosphorylation of IRS-1 in adipose tissue of treated diabetic mice. The note with it: 2 weeks of DHH105 treatment. The assay is classed as in vivo, mouse. As to the method: Adipocytes treated with DHH105 for 2 h or insulin for 10 min were homogenized in 5 ml lysis buffer (20 mM Tris, pH 7.4, 1% SDS, 10% glycerol, 150 mM NaCl, 2 mM EDTA, 20 mM NaF, 1 mM NaVO4, 2 mM sodium pyrophosphate, protease inhibitor cocktail, and phosphatase inhibitor cocktail) with a teflon pestle (15 strokes). Homogenized adipocytes were sonicated for 3 min and solubilized for 30 min. The homogenate was centrifuged at 3,000 g for 10 min at 4° C. The protein concentration of the lysate was determined by the Bradford method. After dilution (1 μg/μl protein concentration), the lysates were incubated with anti-insulin receptor-β (IR-β) antibody (Upstate Biotech, Charlottesville, Va.) or anti-IRS-1 antibody (Upstate Biotech) overnight at 4° C. Protein A Sepharose beads (100 μl, Amersham Pharmacia Biotech) were added and the mixture was gently rocked for 2 h at 4° C. […] The membranes were washed and the immunoreactive proteins were detected with an enhanced chemoluminescence western blot detection kit (Amersham Pharmacia Biotech). To examine whether in vivo treatment of STZ-induced diabetic C57BL/6 mice or ob/ob mice with DHH105 also increases phosphorylation of IR-β, and IRS-1, fat tissue was removed from the mice after 2 weeks of DHH105 treatment and phosphorylation of IR-β and IRS-1 was measured by immunoprecipitation and western blot.

Consider `O=C(CCc1ccc(O)c(O)c1)OCc1cccc2ccccc12` [DHH105, 3,4-dihydroxyhydrocinnamic acid naphthalene methyl ester], for which, in assay [1], the “amount of Akt/PKB protein” value was “did not change”. Moreover, the “phosphorylated Akt/PKB” value in assay [1] (vs untreated control) is “significantly increased”. The “time after first injection at which blood glucose levels began to decrease” value in assay [2] (150 mg/kg i.p. daily) worked out at 4 days. Besides, the “blood glucose levels vs vehicle-treated control mice” value in assay [2] (150 mg/kg i.p. daily for 2 weeks) is listed as “significantly lower”. Besides, the “phosphorylation of IRS-1 in adipose tissue” value in assay [3] (STZ-induced diabetic C57BL/6 mice) and in assay [3] (ob/ob mice) was “increased” throughout.
